From patent publication US10238670B2, “9-aminomethyl minocycline compounds and methods of use thereof in urinary tract infection (UTI) treatment” (Paratek Pharmaceuticals, Inc., priority 2016, dated 2019)

Key:
baseline pathogen = test: Phase 1b study, per-pathogen microbiological response at PTE (urine culture); assay type: in vivo, human
Experimental: At screening and at all study visits (i.e., screening, daily while on treatment, and at EOT and PTE visits) a microbiologic evaluation of the infection under study was performed. A clean-catch midstream urine sample was collected and immediately sent to the local microbiology laboratory for microscopic examination and culture. Quantitative urine culture by appropriate methods was performed using a calibrated loop that would identify bacteria at a lower limit of 1×10^3 CFU/mL. In general, bacteria identified at 1×10^5 colony forming units (CFU)/mL or greater were considered a bacterial pathogen (probability of true pathogen was greater than probability of contamination). In addition, if the same bacteria was isolated in the blood and in the urine at any CFU count it was considered a pathogen. Culture results were to include identification of all pathogens to the level of genus and species. In vitro antimicrobial susceptibility testing of the isolates to antimicrobial drugs that may be used to treat UTIs was performed locally using a standard method chosen by the laboratory. The microbiological outcome was determined programmatically based on the local and Central Laboratory microbiological analyses. For an isolate to be considered a pathogen at screening, it must presented in the urine sample at ≥10^5 CFU/mL or the pathogen should be isolated from both the blood and urine at any CFU count. Microbiological outcome was defined as: • Eradication: […] The pathogens isolated at baseline were presented by genus and species by treatment group. The number and percentage of subjects with a by-subject and by-pathogen eradication, persistence and indeterminate microbiologic response were presented. A listing of all baseline and post-baseline isolates was provided.

[1] = test system: E. coli (ATCC 25922) biofilm; test: MBEC assay, activity against established 24 hour biofilm; assay type: cell-based, Escherichia coli; conditions: 24 hours challenge
Experimental: The MBEC™ assay (formerly the Calgary biofilm device; Innovotech Inc., Canada) is a well-established high throughput assay for assessment of anti-biofilm activity of test agents in a 96-well format. Within this assay, the biofilm is formed on the plastic pegs of the plate lid. After inoculated media is introduced to the wells of the 96-well plate, the plate is placed in a shaking incubator to generate the necessary shear force for biofilm growth on the pegs. Following a suitable incubation time, the individual biofilms can be treated with varying concentrations of test agents (challenge plate). After the desired treatment time, the remaining biofilm-associated bacteria are retrieved from the pegs through sonication (recovery plate). Serial dilution and/or plating of the recovered bacterial suspension allow for the quantification of test agents' efficacy against pre-formed biofilms. Additionally, readout of the challenge plate from the biofilm treatment can be used to determine MIC values of test agents. The absence of growth in the recovery plate indicates complete biofilm eradication and the lowest concentration of a test agent that achieves this is designated as the minimum biofilm eradication concentration (MBEC). The MBEC™ assay is also amenable to assess potential synergistic effects of combination treatments, as well as efficacy of test agents in inhibiting or inducing biofilm formation. The MBEC™ plates were inoculated with 10^7 CFU/mL of stationary phase E. coli (ATCC 25922) and incubated for 24 hours to allow formation of a robust biofilm. The individual biofilms formed on the pegs were challenged with varying concentrations of antibiotics for 24 hours, followed by recovery of the surviving bacteria. Bacterial enumeration was performed using a Most Probable Number (MPN) assay (Sutton, Journal of Validation Technology 16 (3): 35-38, 2010, incorporated herein by reference) in a 96-well format.

Phase 1 studies, safety = assay type: in vivo, human
Experimental: In the Phase 1 studies, 536 subjects were exposed to Compound 1 IV or oral formulations. Single IV doses up to 600 mg and single oral doses up to 600 mg have been investigated. Multiple IV doses of 100 mg once daily and 200 mg once daily for up to 14 and 7 consecutive days, respectively, have been investigated.

E. coli FQS = test: In vitro MIC, 2010 surveillance isolates; assay type: cell-based, Escherichia coli; conditions: N=2906
[2] = Enterococcus faecalis, IV_PO300
[3] = Overall Gram Negative Pathogens, IV_PO300
[4] = Overall Gram Negative Pathogens, PO300
[5] = Overall Gram Negative Pathogens, PO450
[6] = Overall Gram Positive Pathogens, IV_PO300
[7] = Overall Gram Positive Pathogens, PO300
[8] = Overall Gram Positive Pathogens, PO450
[9] = Staphylococcus saprophyticus, PO450
[10] = Streptococcus agalactiae - (Group B), PO300

## CN(C)c1cc(CNCC(C)(C)C)c(O)c2c1C[C@H]1C[C@H]3[C@H](N(C)C)C(O)=C(C(N)=O)C(=O)[C@@]3(O)C(O)=C1C2=O [Compound 1, 9-[(2,2-dimethyl-propylamino)-methyl]-minocycline]
Baseline pathogen; Aerococcus urinae, PO450
  Eradication: 1 (100.0) n (%)
  Indeterminate: 0 (0.0) n (%)
  Persistence: 0 (0.0) n (%)
Baseline pathogen; [2]
  Eradication: 1 (100.0) n (%)
  Indeterminate: 0 (0.0) n (%)
  Persistence: 0 (0.0) n (%)
Baseline pathogen; Escherichia coli, IV_PO300
  Eradication: 3 (100.0) n (%)
  Indeterminate: 0 (0.0) n (%)
  Persistence: 0 (0.0) n (%)
Baseline pathogen; Escherichia coli, PO300
  Eradication: 2 (66.7) n (%)
  Indeterminate: 0 (0.0) n (%)
  Persistence: 1 (33.3) n (%)
Baseline pathogen; Escherichia coli, PO450
  Eradication: 2 (50.0) n (%)
  Indeterminate: 0 (0.0) n (%)
  Persistence: 2 (50.0) n (%)
Baseline pathogen; Klebsiella pneumoniae, PO300
  Eradication: 1 (100.0) n (%)
  Indeterminate: 0 (0.0) n (%)
  Persistence: 0 (0.0) n (%)
Baseline pathogen; Klebsiella pneumoniae, PO450
  Eradication: 1 (50.0) n (%)
  Indeterminate: 0 (0.0) n (%)
  Persistence: 1 (50.0) n (%)
Baseline pathogen; [3]
  Eradication: 6 (100.0) n (%)
  Indeterminate: 0 (0.0) n (%)
  Persistence: 0 (0.0) n (%)
Baseline pathogen; [4]
  Eradication: 4 (100.0) n (%)
  Indeterminate: 0 (0.0) n (%)
  Persistence: 1 (25.0) n (%)
Baseline pathogen; [5]
  Eradication: 3 (50.0) n (%)
  Indeterminate: 0 (0.0) n (%)
  Persistence: 3 (50.0) n (%)
Baseline pathogen; [6]
  Eradication: 1 (100.0) n (%)
  Indeterminate: 0 (0.0) n (%)
  Persistence: 0 (0.0) n (%)
Baseline pathogen; [7]
  Eradication: 1 (100.0) n (%)
  Indeterminate: 0 (0.0) n (%)
  Persistence: 0 (0.0) n (%)
Baseline pathogen; [8]
  Eradication: 2 (100.0) n (%)
  Indeterminate: 0 (0.0) n (%)
  Persistence: 0 (0.0) n (%)
Baseline pathogen; Proteus mirabilis, IV_PO300
  Eradication: 3 (100.0) n (%)
  Indeterminate: 0 (0.0) n (%)
  Persistence: 0 (0.0) n (%)
Baseline pathogen; Proteus mirabilis, PO300
  Eradication: 1 (100.0) n (%)
  Indeterminate: 0 (0.0) n (%)
  Persistence: 0 (0.0) n (%)
Baseline pathogen; [9]
  Eradication: 1 (100.0) n (%)
  Indeterminate: 0 (0.0) n (%)
  Persistence: 0 (0.0) n (%)
Baseline pathogen; [10]
  Eradication: 1 (100.0) n (%)
  Indeterminate: 0 (0.0) n (%)
  Persistence: 0 (0.0) n (%)
[1]; at around MIC
  reduction of total biofilm-associated bacteria: 1-2 log units
[1]; at higher concentrations
  reduction in bioburden: 4-5 log units
Phase 1 studies, safety; all Phase 1 studies, subjects who received multiple doses
  discontinuations due to drug-related adverse events: no discontinuations due to drug-related adverse events
Phase 1 studies, safety; multiple p.o. doses of 200 mg and 300 mg once daily for up to 10 consecutive days
  serious adverse events: without any serious adverse events
E. coli FQS; MIC 1 μg/ml
  Cumulative % Inhibition at MIC: 87.0%
E. coli FQS; MIC 2 μg/ml
  Cumulative % Inhibition at MIC: 96.6%
E. coli FQS; MIC 4 μg/ml
  Cumulative % Inhibition at MIC: 99.6%
E. coli FQS; MIC 8 μg/ml
  Cumulative % Inhibition at MIC: 99.9%
E. coli FQS; MIC 16 μg/ml
  Cumulative % Inhibition at MIC: 99.9%
E. coli FQS; MIC ≤0.5 μg/ml, listed as head image P00007
  Cumulative % Inhibition at MIC: 58.5%
E. coli FQS; MIC ≥32 μg/ml
  Cumulative % Inhibition at MIC: 100%
